Experimental data from US20230278972A1, “SUBSTITUTED HALOALKYL SULFONANILIDE HERBICIDES” (FMC Corporation, priority 2020, published 2023).

Assays:
Type in all cases: in vivo
[1] = test system: barnyardgrass (Echinochloa crus-galli); assay: Test A preemergence, barnyardgrass; settings: Preemergence; for Plant response rating, Barnyardgrass: 0 to 100 scale (0 no effect, 100 complete control); for Barnyardgrass plant response rating: visual injury on 0 to 100 scale (0 no effect, 100 complete control), approximately 10 days
In short: (§1)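 Directed soil spray at planting gave the preemergence treatment, while foliar application to one- to two-leaf seedlings (2–10 cm) gave the postemergence one; pots held a loam and sand mixture and chemicals were carried in a non-phytotoxic solvent with surfactant.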

[2] = test system: kochia (Bassia scoparia); assay: Test A preemergence, kochia; settings: Preemergence; for Plant response rating, Kochia: 0 to 100 scale (0 no effect, 100 complete control); for Kochia plant response rating: visual injury on 0 to 100 scale (0 no effect, 100 complete control), approximately 10 days
In short: as §1

[3] = test system: ragweed (common ragweed, Ambrosia artemisiifolia); assay: Test A preemergence, ragweed; settings: Preemergence; for Plant response rating, Ragweed: 0 to 100 scale (0 no effect, 100 complete control); for Ragweed plant response rating: visual injury on 0 to 100 scale (0 no effect, 100 complete control), approximately 10 days
In short: as §1

[4] = test system: Ryegrass, Italian (Italian ryegrass, Lolium multiflorum); assay: Test A preemergence, Ryegrass, Italian; settings: Preemergence; for Plant response rating, Ryegrass, Italian: 0 to 100 scale (0 no effect, 100 complete control); for Ryegrass, Italian plant response rating: visual injury on 0 to 100 scale (0 no effect, 100 complete control), approximately 10 days
In short: as §1

[5] = test system: Foxtail, Giant (giant foxtail, Setaria faberi); assay: Test A preemergence, Foxtail, Giant; settings: Preemergence; for Plant response rating, Foxtail, Giant: 0 to 100 scale (0 no effect, 100 complete control); for Foxtail, Giant plant response rating: visual injury on 0 to 100 scale (0 no effect, 100 complete control), approximately 10 days
In short: as §1

[6] = test system: pigweed (Amaranthus retroflexus); assay: Test A preemergence, pigweed; settings: for Plant response rating, Pigweed: 0 to 100 scale (0 no effect, 100 complete control); for Pigweed plant response rating: visual injury on 0 to 100 scale (0 no effect, 100 complete control), approximately 10 days
In short: (§2)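 Barnyardgrass, wheat and galium were treated postemergence at the one- to two-leaf stage (2 to 10 cm) with chemicals formulated in non-phytotoxic solvent plus surfactant, grown in loam soil–sand pots. Pigweed was sown in the same blend and given a preemergence directed soil spray.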

[7] = test system: barnyardgrass (Echinochloa crus-galli); assay: Test A postemergence, barnyardgrass; settings: Postemergence, 0 to 100 scale (0 no effect, 100 complete control)
In short: as §2

[8] = test system: kochia (Bassia scoparia); assay: Test A postemergence, kochia; settings: Postemergence
In short: as §1

[9] = test system: ragweed (common ragweed, Ambrosia artemisiifolia); assay: Test A postemergence, ragweed; settings: Postemergence
In short: as §1

[10] = test system: Ryegrass, Italian (Italian ryegrass, Lolium multiflorum); assay: Test A postemergence, Ryegrass, Italian; settings: Postemergence
In short: as §1

[11] = test system: Foxtail, Giant (giant foxtail, Setaria faberi); assay: Test A postemergence, Foxtail, Giant; settings: Postemergence
In short: as §1

[12] = test system: pigweed (Amaranthus retroflexus); assay: Test A postemergence, pigweed; settings: Postemergence
In short: as §1

[13] = test system: wheat (Triticum aestivum); assay: Test A postemergence, wheat; settings: Postemergence
In short: as §2

[14] = test system: corn (Zea mays); assay: Test A postemergence, corn; settings: Postemergence
In short: as §1

[15] = test system: blackgrass (Alopecurus myosuroides); assay: Test A postemergence, blackgrass; settings: Postemergence, 0 to 100 scale (0 no effect, 100 complete control)
In short: as §1

[16] = test system: galium (catchweed bedstraw, Galium aparine); assay: Test A postemergence, galium; settings: Postemergence
In short: as §2

[17] = 125 g ai/ha, visual injury, approx. 10 days
[18] = 500 g ai/ha, visual injury approx. 10 days
[19] = 125 g ai/ha, 0 to 100 scale (0 no effect, 100 complete control)
[20] = 500 g ai/ha, visual injury approx. 10 days, 0 to 100 scale (0 no effect, 100 complete control)
[21] = 1000 g ai/ha, visual injury, approx. 10 days
[22] = 1000 g ai/ha, visual injury, 0 to 100 scale (0 no effect, 100 complete control), approx. 10 days
[23] = 125 g ai/ha, visual injury approx. 10 days
[24] = 500 g ai/ha, visual injury vs untreated controls after approx. 10 days
[25] = 125 g ai/ha, visual injury approx. 10 days, 0 to 100 scale (0 no effect, 100 complete control)
[26] = 500 g ai/ha, visual injury vs untreated controls after approx. 10 days, 0 to 100 scale (0 no effect, 100 complete control)
[27] = 31 g ai/ha, visual injury, approx. 10 days
[28] = 31 g ai/ha, visual injury on 0 to 100 scale (0 no effect, 100 complete control), approx. 10 days

Cc1cc(Cl)c(C(=O)N(C)C)cc1N(S(=O)(=O)C(F)(F)F)S(=O)(=O)C(F)(F)F [Compound 256]
40: Plant response rating, Ragweed [9, 19]
60: Plant response rating, Kochia [2, 17] | Plant response rating, Ragweed [3, 17] | Plant response rating, Barnyardgrass ([7]; 125 g ai/ha) | Plant response rating, Pigweed [12, 19] | Plant response rating, Wheat [13, 20] | Plant response rating, Galium [16, 19]
100: Barnyardgrass plant response rating ([1]; 500 g ai/ha) | Ryegrass, Italian plant response rating ([4]; 500 g ai/ha) | Plant response rating, Pigweed [6, 17] | Pigweed plant response rating ([6]; 500 g ai/ha)
80: Ragweed plant response rating ([3]; 500 g ai/ha) | Plant response rating, Ryegrass, Italian [4, 17] | Plant response rating, Ragweed [9, 20] | Plant response rating, Pigweed [12, 20] | Plant response rating, Galium [16, 20]
0: Plant response rating, Ryegrass, Italian [10, 19] | Plant response rating, Foxtail, Giant [11, 20] | Plant response rating, Corn [14, 19] | Plant response rating, Blackgrass ([15]; 125 g ai/ha) | Plant response rating, Blackgrass [15, 18]
30: Plant response rating, Foxtail, Giant [5, 17]
70: Plant response rating, Kochia [8, 20]
90: Plant response rating, Barnyardgrass [1, 17] | Kochia plant response rating ([2]; 500 g ai/ha) | Foxtail, Giant plant response rating ([5]; 500 g ai/ha)
20: Plant response rating, Wheat [13, 19] | Plant response rating, Corn [14, 20]
50: Plant response rating, Barnyardgrass [7, 18] | Plant response rating, Kochia [8, 19] | Plant response rating, Ryegrass, Italian [10, 20]
10: Plant response rating, Foxtail, Giant [11, 19]

Cc1cc(C)c(C(=O)N2CCC(F)CC2)cc1NS(=O)(=O)C(F)(F)F [Compound 8]
30: Plant response rating, Corn [14, 22]
40: Plant response rating, Wheat [13, 22]
100: Plant response rating, Barnyardgrass ([1]; 1000 g ai/ha) | Plant response rating, Kochia ([2]; 1000 g ai/ha) | Plant response rating, Ryegrass, Italian ([4]; 1000 g ai/ha) | Plant response rating, Foxtail, Giant ([5]; 1000 g ai/ha) | Plant response rating, Pigweed ([6]; 1000 g ai/ha)
80: Plant response rating, Barnyardgrass [7, 21] | Plant response rating, Kochia [8, 22] | Plant response rating, Ryegrass, Italian [10, 22] | Plant response rating, Pigweed [12, 22]
20: Plant response rating, Galium [16, 22]
90: Plant response rating, Ragweed ([3]; 1000 g ai/ha) | Plant response rating, Ragweed [9, 22] | Plant response rating, Foxtail, Giant [11, 22]
70: Plant response rating, Blackgrass [15, 21]

Cc1cc(C)c(-c2ccnn(C(C)C)c2=O)cc1NS(=O)(=O)C(F)(F)F [Compound 78]
70: Barnyardgrass plant response rating [7, 24] | Plant response rating, Foxtail, Giant [11, 25] | Wheat plant response rating [13, 26]
40: Plant response rating, Barnyardgrass [7, 23] | Ragweed plant response rating [9, 26] | Plant response rating, Ryegrass, Italian [10, 25]
50: Pigweed plant response rating [12, 26] | Corn plant response rating [14, 26]
30: Pigweed plant response rating ([6]; 125 g ai/ha) | Blackgrass plant response rating [15, 24]
80: Ragweed plant response rating ([3]; 125 g ai/ha)
90: Barnyardgrass plant response rating ([1]; 125 g ai/ha) | Plant response rating, Ragweed ([3]; 500 g ai/ha) | Plant response rating, Pigweed ([6]; 500 g ai/ha) | Foxtail, Giant plant response rating [11, 26] | Galium plant response rating [16, 26]
60: Plant response rating, Kochia ([2]; 500 g ai/ha) | Ryegrass, Italian plant response rating [10, 26] | Plant response rating, Galium [16, 25]
0: Kochia plant response rating ([2]; 125 g ai/ha) | Plant response rating, Kochia [8, 25] | Plant response rating, Ragweed [9, 25] | Plant response rating, Pigweed [12, 25] | Plant response rating, Wheat [13, 25] | Plant response rating, Corn [14, 25] | Plant response rating, Blackgrass [15, 23]
100: Plant response rating, Barnyardgrass ([1]; 500 g ai/ha) | Ryegrass, Italian plant response rating ([4]; 125 g ai/ha) | Plant response rating, Ryegrass, Italian ([4]; 500 g ai/ha) | Foxtail, Giant plant response rating ([5]; 125 g ai/ha) | Plant response rating, Foxtail, Giant ([5]; 500 g ai/ha)
20: Kochia plant response rating [8, 26]

CCC(C)C(=O)OCN(c1cc(C2=NOC3(CCCC3)C2)c(C)cc1C)S(=O)(=O)C(F)(F)F (stereo not shown) [Compound 151]
50: Plant response rating, Pigweed [6, 27] | Plant response rating, Wheat [13, 19]
90: Barnyardgrass plant response rating ([1]; 125 g ai/ha) | Ryegrass, Italian plant response rating ([4]; 125 g ai/ha) | Pigweed plant response rating ([6]; 125 g ai/ha)
40: Plant response rating, Ragweed [9, 19]
60: Plant response rating, Foxtail, Giant [5, 27] | Plant response rating, Galium [16, 28]
30: Ragweed plant response rating ([3]; 125 g ai/ha) | Plant response rating, Ryegrass, Italian [4, 27] | Plant response rating, Barnyardgrass ([7]; 125 g ai/ha) | Plant response rating, Foxtail, Giant [11, 19] | Plant response rating, Pigweed [12, 28] | Plant response rating, Pigweed [12, 19]
10: Plant response rating, Kochia [8, 28] | Plant response rating, Kochia [8, 19] | Plant response rating, Corn [14, 19]
70: Plant response rating, Galium [16, 19]
0: Plant response rating, Barnyardgrass [1, 27] | Plant response rating, Kochia [2, 27] | Kochia plant response rating ([2]; 125 g ai/ha) | Plant response rating, Ragweed [3, 27] | Plant response rating, Barnyardgrass ([7]; 31 g ai/ha) | Plant response rating, Ragweed [9, 28] | Plant response rating, Ryegrass, Italian [10, 28] | Plant response rating, Ryegrass, Italian [10, 19] | Plant response rating, Foxtail, Giant [11, 28] | Plant response rating, Wheat [13, 28] | Plant response rating, Corn [14, 28] | Plant response rating, Blackgrass ([15]; 31 g ai/ha) | Plant response rating, Blackgrass ([15]; 125 g ai/ha)
100: Foxtail, Giant plant response rating ([5]; 125 g ai/ha)
